Results as given in patent publication US8178727B2, “Bis(arylmethylidene)acetone compound, anti-cancer agent, carcinogenesis-preventive agent, inhibitor of expression of Ki-Ras, ErbB2, c-Myc and Cycline D1, β-catenin-degrading agent, and p53 expression enhancer” (National University Corporation Tohoku University, priority 2005, dated 2012).
pIC50: −log10 of the molar value.

Experiments:
[1] = tested on: A431, ACHN, and HepG2 cells; experiment: Growth inhibition compared with conventional anti-cancer agents (FIG. 6); type: cell-based, human
Procedure: (§1) The inhibitory efficacy of bis(arylmethylidene)-acetones on the development and growth of malignant tumor cells was examined. Curcumin and bis(arylmethylidene)-acetone compounds were dissolved in DMSO to obtain 50 mM compound solutions for storage. Sixteen human cancer cell lines (HCT116, DLD-1, SW620. LK87, PC3, MCF7, PK9, HuCCT-1, SH10TC, GCIY, G361, 8505c, HepG2, A431, ACHN, OVK18) were obtained from the Medical Cellular Resources Center of the Institute of Development, Aging, and Cancer at Tohoku University, Japan. These cells were cultured at 37° C. under 5% CO2 conditions using as a culture medium RPMI1640 (Sigma Aldrich) supplemented with 10% fetal bovine serum and kanamycin (Wako Pure Chemical Industries: final concentration, […]).
(§2) Each cell line was placed on a 96-well microtiter plate at a cell density of 2500 to 5000 cells/100 μL/well in accordance with the growth rate of the cell line. After cell cultivation for 24 hours, […] medium containing each compound was added. The final concentration of each test compound is 0, 0.1, 0.25, 0.5, 1, 2.5, 5, 10, 25, 50, and 100 μM (11 levels). The maximum final concentration of DMSO used as a solvent was 1%. […] Thereafter, each optical absorbance at 450 nm (620 nm background) was measured with an MPR-A4i microplate reader (Tosoh, Japan). A curve of the inhibition of cell growth was constructed using the measured optical absorbances. […]

colon-cancer cells = experiment: Growth inhibition compared with anti-cancer agents 5-FU, CPT11, CDDP (FIG. 6); type: cell-based, human
Procedure: as §1
(§3) Each cell line was placed on a 96-well microtiter plate at a cell density of 2500 to 5000 cells/100 μL/well in accordance with the growth rate of the cell line. After cell cultivation for 24 hours, […] medium containing each compound was added. The final concentration of each test compound is 0, 0.1, 0.25, 0.5, 1, 2.5, 5, 10, 25, 50, and 100 μM (11 levels). The maximum final concentration of DMSO used as a solvent was 1%. After culturing for 96 hours, the medium was aspirated away, followed by washing with PBS. Next, 100 μL of a medium containing a solution of Cell Counting Kit 8 at 1/10 (v/v) was added. Culturing was then continued for one hour. Thereafter, each optical absorbance at 450 nm (620 nm background) was measured with an MPR-A4i microplate reader (Tosoh, Japan). A curve of the inhibition of cell growth was constructed using the measured optical absorbances.
Stored solutions of three anti-cancer agents: 5-FU, CDDP, and CPT11, prepared beforehand (1 mM), were suitably diluted prior to use, and also added to culture media.

[2] = tested on: cell lines derived from stomach, lung, breast, ovarian, prostate, pancreatic, bile duct, thyroid cancer and melanoma; experiment: Growth inhibition compared with 5-FU, CPT11, CDDP in cell lines of other cancers (FIG. 6); type: cell-based, human; conditions: cell lines from a variety of other cancers
Procedure: as §1, §2

DLD-1 cells = experiment: Cell growth inhibition (Cell Counting Kit 8, Wst-8), 96 h exposure; type: cell-based; conditions: Homo sapiens, DLD-1 colon cancer cells
Procedure: as §1
(§4) Three human colon-cancer cell lines (DLD-1, HCT116, SW620) were used in screening for cell growth inhibitory efficacy. The test compounds (bis(arylmethylidene)-acetones) were added to the culture media at the target concentrations, and exposure to the compounds was then continued for 96 hours in order to investigate not only acute cell damages but also effects on the cells, involving intracellular metabolic responses and others. The cell growth inhibitory efficacy was then evaluated with Cell Counting Kit 8 (Wst-8 Test, Dojindo Laboratories, Japan). In this analysis method, tetrazolium salt Wst-8 is degraded by reduced form nicotinamide adenine dinucleotide (nicotinamide adenine dinucleotide H; NADH). The activity of NADH is maintained only inside viable cells, and Wst-8 becomes colored upon degradation. The optical absorbance at 450 nm is measured, whereby the number of viable cells can be indirectly estimated.
as §3

SW620 cells = experiment: as above; type: cell-based; conditions: Homo sapiens, SW-620, SW620 colon cancer cells
Procedure: as §1, §4, §3

HCT116 cells = experiment: as above; type: cell-based; conditions: Homo sapiens, HCT-116, HCT116 colon cancer cells
Procedure: as §1, §4, §3

β-catenin = experiment: Western blot of β-catenin degrading activity; type: cell-based, human; conditions: FIG. 9
Procedure: Western-blot analysis was used to investigate effects on the expression of oncogene products, ErbB2, c-Myc, and Cyclin D1, whose activity is enhanced in a variety of cancer cells, and to investigate the activity of degrading β-catenin, which plays an important role in the initial stages of carcinogenesis to the formation and development of tumors.
(§5) Western-blot analysis was performed in the following manner:
(§6) After HCT116 cells were treated with each test compound, plate-adhered cells were recovered along with cells suspended in supernatants, centrifuged, and pelleted. The cells were then lysed with a lysis solution (40 mM Tris-HCl, 1% Triton X-100, 2 mM MgCl2) supplemented with 200-μM phenylmethanesulfonyl fluoride (PMSF), 500-μM benzamidine, and 1-μg/mL leupeptin. After the mixture was allowed to stand on ice for 30 minutes, it was centrifuged for 10 minutes at 4° C. and 10000×g, and supernatants were recovered. To the resultant supernatant was added equimolarly 2× sample buffer (0.1 M Tris-HCl (pH 6.8), 4% SDS, 20% glycerol, and 12% β-mercaptoethanol), and the mixture was shaken for 3 minutes at 4° C., then heated to 95° C. for 4 minutes, and then stored at −20° C. until use. The cell lysates were phoresed on 8% SDS-PAGE, transferred to a Hybond-P membrane (Amersham Biosciences), and made to react with various monoclonal antibodies described below.
(§7) Monoclonal antibodies: anti-actin antibody (A2066, Sigma Aldrich), anti-β-catenin antibody (6101 53, BD-transduction Laboratories), anti-p53 antibody (FL393: sc-6243HRP), anti-cyclin D1 antibody (M-20: sc-718), anti-c-Myc antibody (9E10: sc-40), anti-k-Ras-2B antibody (C-19: sc-521), and anti-c-ErbB2 antibody (A0485, DAKO Cytomation).

Apc580D mice = experiment: Survival in familial adenomatous polyposis mouse model; type: in vivo
Text: Familial adenomatous polyposis (FAP) is the most appropriate model for considering the multistage process of carcinogenesis in colon cancer. The APC gene is a causative gene in this illness. This gene is a tumor suppressor gene and is linked to the degradation of the β-catenin gene product. The FAP mouse model Aoc580D (Apc580D/+mice, wherein a mutation was introduced into the mouse Apc gene by homologous genetic recombination) is heterozygous for a genetic mutation in which codon 580 of the APC gene is a stop codon (i.e., the Apc gene product is truncated at codon 580). These mice present hundreds of polyps in the gastrointestinal tract in the same manner as human FAP. […] Reference: Shibata H. et al., Science, 278, pp. 120-123 “Rapid colorectal adenoma formation initiated by conditional targeting of the Apc gene,” 1997.
Analysis was performed on therapeutic models (in which administration was initiated around the age of 8 weeks, when polyposis had already been observed) and prophylactic models (in which administration was initiated around the age of 4 weeks, when polyposis had not been observed) of carcinogenesis in the colon. Apc580D mice (2 animals) given daily an oral intake of HFD35 alone at a dose of 5 g were used as a control.

[3] = tested on: primary cultured hepatic cells (hNHeps); experiment: Toxicity test on normal cells; type: cell-based; conditions: FIG. 13
C57BL/6J mice = experiment: In vivo toxicity, mixed feed in high-fat diet; design: species or system mouse; conditions: oral, 0.1% (w/w) in high-fat diet HFD35, 5 mg/day, more than 120 days
Procedure: The synthetic compounds of the present invention are derived from curcumin, which is originally a food item. […] As a further test for in vivo toxicity, inbred C57BL/6J mice received daily an oral intake of 5 g of mixed feed (test compound dose: 5 mg/day) wherein each test compound was admixed at 0.1% (weight/weight) with a high-fat diet (HFD35, CLEA Japan).

p53 = experiment: Western blot of p53 gene product expression; type: cell-based, human; conditions: FIG. 11
Procedure: as §5, §6, §7
Curcumin is known to have activity in degrading p53 gene products. Degradation, genetic expression reduction, instability, or other deficiencies of the tumor suppressor gene p53 gene products, result in disadvantageous conditions as concerns cell malignancy and tendency to become cancerous.

For `O=C(/C=C/c1cc(O)cc(O)c1)/C=C/c1cc(O)cc(O)c1` (hydrate or solvate) [GO-Y038, (1E,4E)-1,5-bis-(3,5-dihydroxyphenyl)penta-1,4-dien-3-one], the melting point was 298 to 300 °C (dec.).
Compound `COc1cc(Br)cc(/C=C/C(=O)/C=C/c2cc(Br)cc(OC)c2)c1` [GO-033, (1E,4E)-1,5-bis-(3-bromo-5-methoxyphenyl)penta-1,4-dien-3-one] has a melting point of 181 to 183 °C.
For `O=C(/C=C/c1ccc2ccccc2c1)/C=C/c1ccc2ccccc2c1` [GO-Y011, (1E,4E)-1,5-dinaphthalen-2-yl-penta-1,4-dien-3-one], the melting point was 244 to 246 °C.
With `COc1cc(/C=C/C(=O)/C=C/c2cc(OC)c(OC)c(OC)c2)cc(OC)c1OC` [GO-Y016, (1E,4E)-1,5-bis-(3,4,5-trimethoxyphenyl)penta-1,4-dien-3-one] the “effect relative to conventional anti-cancer agents” value [1] was “do not exert biological effects surpassing conventional anti-cancer agents”, the “growth inhibitory activity relative to 5-FU, CPT11 and CDDP” value (colon-cancer cells) was “much stronger” and the “anti-cancer activity relative to 5-FU, CPT11, and CDDP” value [2] was “strong anti-cancer activity”. For the same compound, the pIC50 (DLD-1 cells) was 6.60, the pIC50 (SW620 cells) was 6.70 and the pIC50 (HCT116 cells) was 6.60. The “β-catenin-degrading activity compared with BDMPP” value (β-catenin) was “not”.
For `COc1ccc(/C=C/C(=O)/C=C/c2ccc(OC)c(O)c2)cc1O` [GO-Y023, (1E,4E)-1,5-bis-(3-hydroxy-4-methoxyphenyl)penta-1,4-dien-3-one], the melting point was 195 to 197 °C.
Work on `COc1cc(/C=C/C(=O)/C=C/c2cc(OC)c(O)c(OC)c2)cc(OC)c1O` [GO-Y026, (1E,4E)-1,5-bis-(4-hydroxy-3,5-dimethoxyphenyl)penta-1,4-dien-3-one] yielded a melting point of 166 to 168 °C.
With `COCOc1c(OC)cc(/C=C/C(=O)/C=C/c2cc(OC)c(OCOC)c(OC)c2)cc1OC` [GO-Y031, (1E,4E)-1,5-bis-(3,5-dimethoxy-4-methoxymethoxyphenyl)penta-1,4-dien-3-one] the “average survival, anti-carcinogenically prophylactic model (still alive)” value (Apc580D mice; oral 5 mg/day in HFD35, started around 4 weeks of age) was ≥ 110.0 days, the “survival time, therapeutic model” value (Apc580D mice; oral 5 mg/day in HFD35, started around 8 weeks of age, average where several mice) was 148.0 days and the “effect relative to conventional anti-cancer agents” value [1] was “do not exert biological effects surpassing conventional anti-cancer agents”. The “cytotoxicity to normal cells” value [3] was “non-cytotoxic”, the “growth inhibition on normal cells” value [3] was “no growth inhibition was observed” and the “growth inhibitory activity relative to 5-FU, CPT11 and CDDP” value (colon-cancer cells) was “much stronger”. The “anti-cancer activity relative to 5-FU, CPT11, and CDDP” value [2] was “strong anti-cancer activity”, the “bodily abnormalities including weight loss” value (C57BL/6J mice) was “No bodily abnormalities, including weight loss, were observed” and the pIC50 (DLD-1 cells) was 6.60. The pIC50 (SW620 cells) was 6.30, the pIC50 (HCT116 cells) was 6.60 and the “expression of p53 after 30 hours” value (p53) was “enhanced expression of p53”. The “transient drop in expression of p53 6 to 12 hours after administration” value (p53) was “not seen”, the “concentration at which β-catenin degrading activity is displayed” value (β-catenin) was 1 µM and the “β-catenin-degrading activity compared with BDMPP” value (β-catenin) was “equal to or greater than that of BDMPP”.
`COCCOCOc1c(OC)cc(/C=C/C(=O)/C=C/c2cc(OC)c(OCOCCOC)c(OC)c2)cc1OC` [GO-Y039, (1E,4E)-1,5-bis-(3,5-dimethoxy-4-methoxyethoxymethoxyphenyl)penta-1,4-dien-3-one] showed a melting point of 61 to 63 °C.
For `COc1cc(/C=C/C(=O)/C=C/c2cc(OC)c(OCCO)c(OC)c2)cc(OC)c1OCCO` [GO-Y044, (1E,4E)-1,5-bis-[4-(2-hydroxyethoxy)-3,5-dimethoxyphenyl]penta-1,4-dien-3-one], the melting point was 133 to 135 °C.
With `C#CCOc1c(OC)cc(/C=C/C(=O)/C=C/c2cc(OC)c(OCC#C)c(OC)c2)cc1OC` [GO-Y048, (1E,4E)-1,5-bis-(3,5-dimethoxy-4-prop-2-ynyloxyphenyl)penta-1,4-dien-3-one] the melting point was 162 to 164 °C.
Work on `C#CCOc1c(OC)cc(/C=C/C(=O)/C=C/c2cc(OC)c(OC)c(OC)c2)cc1OC` [GO-Y060, (1E,4E)-1-(3,5-dimethoxy-4-prop-2-ynyloxyphenyl)-5-(3,4,5-trimethoxyphenyl)penta-1,4-dien-3-one] yielded a melting point of 118 to 120 °C.
Compound `COc1cc(/C=C/C(=O)/C=C/c2cc(OC)c(OCCN=[N+]=[N-])c(OC)c2)cc(OC)c1OCCN=[N+]=[N-]` [GO-Y065, (1E,4E)-1,5-bis-[4-(2-azidoethoxy)-3,5-dimethoxyphenyl]penta-1,4-dien-3-one] has a melting point of 107 to 109 °C.
